Results on 2 compounds are retold here after patent US11230542B2, “Inhibitors of integrated stress response pathway” (Praxis Biotech LLC, priority 2017, dated 2022).

Like-named read-outs stand apart in the source and are kept apart here.

One assay deals with fasted Balb/c mice. The assay is described as follows: Fasting-induced muscle atrophy. The class given is in vivo, mouse. Here is the method:
Wild type eight-weeks-old male Balb/c mice obtained from the vivarium Fundacion Ciencia & Vida Chile (Santiago, Chile) were used. Mice were housed in independent plastic cages in a room maintained at 25° C. with a 12-h:12-h light:dark cycle.
Twenty-four hours before and during the 2 days of fasted procedures, animals received oral administration via feeding tubes (15 gauge) of vehicle (50% Polyethylene glycol 400 (Sigma-Aldrich P3265) in distilled water or 10 mg/kg of compound 3 formulated in vehicle solution.
After 2 days of fasting the animals were sacrificed and muscles were removed from both hindlimbs. Mice with feed and water ad libitum were used as control.
For in vivo measurements of protein synthesis, puromycin (Sigma-Aldrich, P8833) was prepared at 0.04 μmol/g body weight in a volume of 200 μL of PBS, and subsequently administered into the animals via IP injection, 30 min prior to muscle collection.
Upon collection, muscles were immediately frozen in liquid nitrogen and then stored at −80° C. […] Protein concentration in supernatants was determined using BCA Protein Assay Kit (Pierce). […]
Puromycin (12D10) (Merck Millipore) and β-actin (Sigma-Aldrich) antibodies were used as primary antibodies. […] Quantification of protein bands was done by densitometry using ImageJ software. […]

The next assay relates to ATF4. The assay is described as follows: ATF4 expression inhibition assay (thapsigargin-stressed HEK293T cells, western blot). The class given is cell-based. As to conditions: Homo sapiens, HEK-293T. The method, boiled down: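 HEK293T cells treated with thapsigargin (Tg) plus test compound (100 nM or 1 μM) for 3 hours, then lysed; ATF4 measured by western blot with ECL and densitometry. % inhibition normalized to Tg alone (0%) and untreated cells (100%); IC50 also calculated.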

For a further assay, the system named is CHO cells. Briefly: Protein translation assay (puromycin incorporation in CHO cells, unstressed or Tg-stressed). The assay is classed as cell-based, Chinese hamster. Particulars: Cricetulus griseus, media alone 100%. The method, boiled down: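 CHO cells pretreated 2 h with 1 μM compound (unstressed), or 1 h with 100 nM or 1 μM then co-treated with 300 nM Tg. Pulse-labelled with 10 μg/ml puromycin for 30 min, then anti-puromycin western blot with densitometry. Unstressed values normalized to media alone (100%); stressed recovery scaled between media alone (100%) and Tg alone (0%).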

In assay [1] the test system is hippocampal slices from transgenic APP/PS1 mice. Briefly: Electrophysiology and long-term potentiation in hippocampal slices. Particulars: slices from APP/PS1 mouse, 5 μM, 60 min after theta burst stimulation. Here is the method: Hippocampal slices were prepared as described in Ardiles et al., Pannexin 1 regulates bidirectional hippocampal synaptic plasticity in adult mice. Front Cell Neurosci, vol. 8, art. 326 (2014). Six to eleven-month-old WT C57BL/6 or transgenic APP/PS1 mice (Jackson Lab 34829-JAX) were deeply anesthetized with isoflurane and their brains were quickly removed. 5-10 slices (350 μm) from each animal were dissected in ice-cold dissection buffer using a vibratome (Leica VT1200S, Leica Microsystems, Nussloch, Germany). Slices were incubated with 5 μM ISRIB, 5 μM compound 3, 1 μM compound 152, or a vehicle (complete medium containing 0.1% DMSO) 20 min before conditioning stimulation. Synaptic responses were evoked by stimulating the Schaffer collaterals with 0.2 ms pulses delivered through concentric bipolar stimulating electrodes, and recorded extracellularly in the stratum radiatum of the CA1 subfield. Long-term potentiation (LTP) was induced by four-theta burst stimulation (TBS) (10 trains of four pulses at 100 Hz; 5 Hz inter-burst interval) delivered at 0.1 Hz. LTP magnitude based on field excitatory postsynaptic potential (fEPSP) was calculated as the average (normalized to baseline) of the responses recorded 60 min after conditioning stimulation. Similar experiments can be performed using a different test compound in place of ISRIB, compound 3, or compound 152.

With `O=C(NC1CCN(C[C@H](O)COc2ccc(Cl)c(F)c2)CC1)c1ccc2cc(Cl)ccc2n1` (single isomer, unassigned) [Compound 152, (+)-6-chloro-N-(1-(3-(4-chloro-3-fluorophenoxy)-2-hydroxypropyl)piperidin-4-yl)quinoline-2-carboxamide], the “ATF4 staining in muscle fiber CSA” value with fasted Balb/c mice was “No staining was detected”. This compound gave an IC50 with ATF4 (3 h with 100 nM Tg, test compound 1 nM to 1 μM) of 49 nM. Besides, 0.1 µM produced 86% inhibition in the assay on ATF4 (3 h with 100 nM thapsigargin (Tg) and 100 nM test compound, Tg alone 0%, untreated 100%). Further, the inhibition at 1 µM in the assay with ATF4 (3 h with 100 nM thapsigargin (Tg) and 1 μM test compound, Tg alone 0%, untreated 100%) was 91%. In addition, the activity at 0.1 µM in the assay on CHO cells (CHO cells stressed with 300 nM Tg, Tg alone 0%, read-out: % Recovery of protein expression (100 nM test compound)) is 99.1%. Moreover, the activity at 1 µM was found to be 280% with CHO cells (CHO cells stressed with 300 nM Tg, Tg alone 0%, read-out: % Recovery of protein expression (1 μM test compound)) and 239% in the assay with CHO cells (unstressed CHO cells, 2 h, read-out: % Protein expression relative to untreated (1 μM test compound)).
Consider `O=C(COc1ccc(Cl)cc1)NC1CCC(NC(=O)COc2ccc(Cl)cc2)CC1` (centres unmarked) [ISRIB], for which the “long-term potentiation (LTP), fEPSP” value in assay [1] was “partial LTP recovery”.
